Assay: molar heat capacity at constant pressure
Details: 101.33 kPa, Crystal 1, Small (less than 1 g) adiabatic calorimetry

CCC(=O)O[C@]1(C(=O)COC(C)=O)CC[C@H]2[C@@H]3C[C@H](C)C4=CC(=O)C=C[C@]4(C)[C@H]3[C@@H](O)C[C@@]21C [Methylprednisolone aceponate]
Details | molar heat capacity at constant pressure [J/K/mol]
181.78 K | 389.3
182.38 K | 390.4
184.68 K | 394.6
184.72 K | 394.9
186.99 K | 398.4
187.66 K | 399.4
189.31 K | 403.5
190 K | 404
190.59 K | 405.5
191.61 K | 407.4
193.51 K | 410.5
193.93 K | 410.9
196.2 K | 415.5
196.43 K | 414.4
198.49 K | 418.9
199.33 K | 420.1
200 K | 421.8
200.78 K | 422.8
202.47 K | 425.8
203.07 K | 427.7
205.36 K | 432.9
205.78 K | 432.4
207.65 K | 435.8
209.13 K | 438
209.94 K | 439.7
210 K | 439.9
212.24 K | 444.3
212.49 K | 444.8
214.54 K | 448.4
215.85 K | 450.6
217 K | 451.2
219.13 K | 456
219.21 K | 456.5
220 K | 458.2
221.43 K | 460.8
222.56 K | 463.6
223.73 K | 465.6
226.03 K | 469.3
228.32 K | 473.5
230 K | 476.5
230.63 K | 477.8
232.91 K | 481.1
235.22 K | 485.8
237.52 K | 490.6
239.83 K | 495.3
240 K | 494.9
242.15 K | 498.7
244.46 K | 503.6
246.77 K | 507.1
249.09 K | 511.5
250 K | 513.6
251.4 K | 516.4
253.72 K | 521
255.92 K | 524.6
256.03 K | 524.6
258.35 K | 529.7
259.52 K | 530.8
260 K | 532.3
260.9 K | 534.6
262.9 K | 537.3
262.99 K | 536.3
265.31 K | 542.1
266.27 K | 542.9
267.63 K | 546.6
269.63 K | 548.4
269.94 K | 551.7
270 K | 550.2
271.74 K | 553.4
272.99 K | 555.5
274.21 K | 556.6
276.35 K | 562.2
276.54 K | 562
278.86 K | 565.7
279.7 K | 568.4
280 K | 568.6
281.15 K | 570.9
283.05 K | 574.7
283.4 K | 575.9
285.69 K | 580.8
286.39 K | 581.4
287.93 K | 584.1
289.74 K | 587.6
290 K | 588.2
290.2 K | 587.9
292.47 K | 592.6
293.07 K | 594.1
294.75 K | 598.5
296.41 K | 600.8
297.02 K | 602.8
298.15 K | 604.8
299.28 K | 607.2
299.74 K | 606.1
300 K | 608.6
301.54 K | 611.3
303.07 K | 615.7
303.8 K | 617.2
306.05 K | 621.4
306.4 K | 622.2
308.26 K | 624.1
309.65 K | 627.8
310 K | 628.6
310.51 K | 629.5
312.76 K | 633
312.99 K | 634.1
315.01 K | 636.6
316.33 K | 639.9
317.25 K | 644.1
319.5 K | 647.2
319.67 K | 646.8
320 K | 647.5
321.75 K | 651.6
323.01 K | 652.2
324 K | 655.2
326.24 K | 660
326.36 K | 659.5
328.49 K | 664.4
329.71 K | 665.6
330 K | 666.6
330.74 K | 670
332.99 K | 672.4
333.06 K | 673.1
335.24 K | 679.6
336.41 K | 679.8
337.49 K | 684.3
339.74 K | 691.4
339.75 K | 688.9
340 K | 691.3
341.99 K | 697.1
343.1 K | 701.5
346 K | 713.9
346.44 K | 717.2

From the NIST ThermoML archive (doi:10.1016/j.jct.2016.08.022)
